≈ marks a conversion by molar mass, not a printed value.
Key:
PC-6 [1] = assay: Concentration required to obtain half of the maximal inhibition for cell growth in human small cell lung cancer(PC-6) was determined by using MTT assay when the cells were exposed to compound for 72 hr; assay type: functional; settings: PC-6, Lung
PC-6 [2] = assay: Concentration required to obtain half of the maximal inhibition for cell growth in vincristine-resistant cell line expressing P-glycoprotein (PC-6/VCR29-9) was determined by using MTT assay when the cells were exposed to compound for 72 hr; assay type: functional; settings: Homo sapiens, PC-6, 72 h
PC-12 = assay: Concentration required to obtain half of the maximal inhibition for cell growth in human non-small cell lung cancer cell line(PC-12) was determined by using MTT assay when the cells were exposed to compound for 72 hr; settings: PC-12, Lung
[3] = Solubility (JP1 at pH 1.2); assay type: physicochemical; settings: JP1, pH 1.2
[4] = Solubility (JP2 at pH 6.8); assay type: physicochemical; settings: JP2, pH 6.8

Structure (SMILES)	GI50 (PC-6 [1])	GI50 (PC-6 [2])	GI50 (PC-12)	solubility [3]	solubility [4]
CC(=O)O[C@@]12CO[C@@H]1CC[C@@]1(C)[C@@H]3OC(C)(C)O[C@@H]3C3=C(C)[C@@H](OC(=O)[C@H](O)[C@@H](NC(=O)OC(C)(C)C)c4ccncc4)C[C@@](O)([C@@H](OC(=O)c4ccccc4)[C@@H]12)C3(C)C	0.386 ng/mL (≈ 0.462 nM)	3.84 ng/mL (≈ 4.6 nM)	0.038 ng/mL (≈ 0.0455 nM)	–	–
CC(=O)O[C@@]12CO[C@@H]1C[C@H](O)[C@@]1(C)[C@@H]3OC(C)(C)O[C@@H]3C3=C(C)[C@@H](OC(=O)[C@H](O)[C@@H](NC(=O)OC(C)(C)C)c4ccncc4)C[C@@](O)([C@@H](OC(=O)c4ccccc4)[C@H]21)C3(C)C	0.38 ng/mL (≈ 0.447 nM)	13.5 ng/mL (≈ 15.9 nM)	0.665 ng/mL (≈ 0.781 nM)	333 µg/mL (≈ 391000 nM)	57 µg/mL (≈ 67000 nM)
CC(=O)O[C@@]12CO[C@@H]1CC[C@@]1(C)[C@@H]3OC(C)(C)O[C@@H]3C3=C(C)[C@@H](OC(=O)[C@H](O)[C@@H](NC(=O)OC(C)(C)C)c4ccccn4)C[C@@](O)([C@@H](OC(=O)c4ccccc4)[C@@H]12)C3(C)C	0.145 ng/mL (≈ 0.174 nM)	0.538 ng/mL (≈ 0.644 nM)	0.116 ng/mL (≈ 0.139 nM)	–	–
CO[C@H]1C[C@H]2OC[C@@]2(OC(C)=O)[C@H]2[C@H](OC(=O)c3ccccc3)[C@]3(O)C[C@H](OC(=O)[C@H](O)[C@@H](NC(=O)OC(C)(C)C)c4ccncc4)C(C)=C([C@H]4OC(C)(C)O[C@H]4[C@]12C)C3(C)C	0.229 ng/mL (≈ 0.265 nM)	38.1 ng/mL (≈ 44 nM)	2.26 ng/mL (≈ 2.61 nM)	–	–
CC(=O)O[C@@]12CO[C@@H]1C[C@@H]1C[C@@]13[C@@H]1OC(C)(C)O[C@@H]1C1=C(C)[C@@H](OC(=O)[C@H](O)[C@@H](NC(=O)OC(C)(C)C)c4ccncc4)C[C@@](O)([C@@H](OC(=O)c4ccccc4)[C@H]23)C1(C)C	7.03 ng/mL (≈ 8.44 nM)	> 100 ng/mL	33.7 ng/mL (≈ 40.5 nM)	–	–
CC(=O)O[C@@]12CO[C@@H]1CC[C@@]1(C)[C@@H]3OC(C)(C)O[C@@H]3C3=C(C)[C@@H](OC(=O)[C@H](O)[C@@H](NC(=O)OC(C)(C)C)c4ccccc4)C[C@@](O)([C@@H](OC(=O)c4ccccc4)[C@@H]12)C3(C)C	0.332 ng/mL (≈ 0.398 nM)	2.91 ng/mL (≈ 3.49 nM)	0.151 ng/mL (≈ 0.181 nM)	–	–
CC(=O)O[C@@]12CO[C@@H]1C[C@@H](F)[C@@]1(C)[C@@H]3OC(C)(C)O[C@@H]3C3=C(C)[C@@H](OC(=O)[C@H](O)[C@@H](NC(=O)OC(C)(C)C)c4ccncc4)C[C@@](O)([C@@H](OC(=O)c4ccccc4)[C@H]21)C3(C)C	0.266 ng/mL (≈ 0.312 nM)	3.87 ng/mL (≈ 4.54 nM)	0.13 ng/mL (≈ 0.152 nM)	–	–
CC(=O)O[C@@]12CO[C@@H]1C[C@H](O)[C@@]1(C)C(=O)[C@H](O)C3=C(C)[C@@H](OC(=O)[C@H](O)[C@@H](NC(=O)OC(C)(C)C)c4ccccc4)C[C@@](O)([C@@H](OC(=O)c4ccccc4)[C@H]21)C3(C)C.O.O.O [DOCETAXEL]	1.48 ng/mL	135 ng/mL	42.2 ng/mL	< 4 µg/mL	< 4 µg/mL
CC(=O)O[C@H]1C(=O)[C@@]2(C)[C@H]([C@H](OC(=O)c3ccccc3)[C@]3(O)C[C@H](OC(=O)[C@H](O)[C@@H](NC(=O)c4ccccc4)c4ccccc4)C(C)=C1C3(C)C)[C@]1(OC(C)=O)CO[C@@H]1C[C@@H]2O [PACLITAXEL]	–	–	–	< 4 µg/mL	< 4 µg/mL

From ChEMBL document CHEMBL1135385, “New highly active taxoids from 9beta-dihydrobaccatin-9,10-acetals. Part 2” (Bioorg Med Chem Lett, 2002)
